# Assay results: PubChem BioAssay AID330 (DTP/NCI, 2004)
# “And” between values parts separate entries of the source, which are not always exact repeats. Equal entries are not always repeated. Toxic doses and inconclusive results are not listed. Numbered stars: 1 amine (or outer) side, 2 acyl side, 3 side chain; on linkers, the order of the positions; unused ones are H or OH. Bridge positions count the residues as written; N and C are the ends. Square brackets hold non-standard residues; d marks the D form. Peptide text beside a SMILES is read from it. I, II: the chains in the order shown. * marks the point of attachment. ξ: configuration not given here. Quinaldoyl(3-OH,6-OMe) = COc1ccc2nc(C(=O)*)c(O)cc2c1; X12 = CCC(=O)OC1CC=NN([*:1])C1C(=O)[*:2]; X8 = CC(=O)OC1CC=NN([*:1])C1C(=O)[*:2]; ξNMeVal(3-OH) = CNC(C(=O)O)C(C)(C)O; Sar = CNCC(=O)O
# System: P388 leukemia ip, CD2F1 mice, survival T/C
# Assay: NCI In Vivo Anticancer Drug Screen. Data for tumor model P388 Leukemia (intraperitoneal) in CD2F1 (CDF1) mice
# Settings: endpoint: median survival time, higher = longer survival
# Method in brief: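 Mice carrying the transplanted tumor received test compound or vehicle. Survival was recorded in each group, and the value is the treated-group measurement divided by that of the vehicle-treated control group.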
# [1] = dose: 6.25 mg/kg/injection, schedule: Q04DX003 (ip), vehicle: saline
# [2] = dose: 12.5 mg/kg/injection, schedule: Q04DX003 (ip), vehicle: saline
# [3] = dose: 25.0 mg/kg/injection, schedule: Q04DX003 (ip), vehicle: saline
# [4] = dose: 100.0 mg/kg/injection, schedule: Q04DX003 (ip), vehicle: saline with Tween-80
# [5] = dose: 200.0 mg/kg/injection, schedule: Q04DX003 (ip), vehicle: saline with Tween-80
# [6] = dose: 400.0 mg/kg/injection, schedule: Q04DX003 (ip), vehicle: saline with Tween-80
# [7] = dose: 60.0 mg/kg/injection, schedule: Q01DX005 (ip), vehicle: Klucel (hydroxypropylcellulose) (HPC)
# [8] = dose: 120.0 mg/kg/injection, schedule: Q01DX005 (ip), vehicle: Klucel (hydroxypropylcellulose) (HPC)
# [9] = dose: 240.0 mg/kg/injection, schedule: Q01DX005 (ip), vehicle: Klucel (hydroxypropylcellulose) (HPC)
# [10] = dose: 50.0 mg/kg/injection, schedule: Q01DX005 (ip), vehicle: saline with Tween-80
# [11] = dose: 100.0 mg/kg/injection, schedule: Q01DX005 (ip), vehicle: saline with Tween-80
# [12] = dose: 100.0 mg/kg/injection, schedule: Q04DX002 (ip), vehicle: saline with Tween-80
# [13] = dose: 50.0 mg/kg/injection, schedule: Q01DX005 (ip), vehicle: Klucel (hydroxypropylcellulose) (HPC)
# [14] = dose: 100.0 mg/kg/injection, schedule: Q01DX005 (ip), vehicle: Klucel (hydroxypropylcellulose) (HPC)
# [15] = dose: 200.0 mg/kg/injection, schedule: Q01DX005 (ip), vehicle: Klucel (hydroxypropylcellulose) (HPC)
smiles,measurement,setting,value
Cc1c2cc[n+](CCO)cc2c(C)c2c1[nH]c1ccc(O)cc12,T/C,"dose: 0.79 mg/kg/injection, schedule: Q04DX003 (ip), vehicle: saline",155 % of control
same,T/C,"dose: 1.56 mg/kg/injection, schedule: Q04DX003 (ip), vehicle: saline",165 % of control
same,T/C,"dose: 3.12 mg/kg/injection, schedule: Q04DX003 (ip), vehicle: saline",165 % of control
same,T/C,[1],155 % of control
same,T/C,[2],100 % of control
same,T/C,[3],92 % of control
C[C@]12CCC(=O)C=C1CC[C@@H]1[C@@H]2[C@@H](O)C[C@@]2(C)[C@H]1CC[C@]2(C)O,T/C,"dose: 25.0 mg/kg/injection, schedule: Q01DX009 (ip), vehicle: saline with Tween-80",90 % of control
same,T/C,"dose: 50.0 mg/kg/injection, schedule: Q01DX009 (ip), vehicle: saline with Tween-80",100 % of control
same,T/C,"dose: 100.0 mg/kg/injection, schedule: Q01DX009 (ip), vehicle: saline with Tween-80",100 % of control
same,T/C,[4],100 % of control
same,T/C,[5],100 % of control
same,T/C,[6],100 % of control
COC1CCCC2OC3(OC)C(OC)CCCC3OC12OC (stereo unspecified),T/C,"dose: 50.0 mg/kg/injection, schedule: Q04DX003 (ip), vehicle: Klucel (hydroxypropylcellulose) (HPC)",100 % of control
same,T/C,"dose: 100.0 mg/kg/injection, schedule: Q04DX003 (ip), vehicle: Klucel (hydroxypropylcellulose) (HPC)",97 % of control
same,T/C,"dose: 200.0 mg/kg/injection, schedule: Q04DX003 (ip), vehicle: Klucel (hydroxypropylcellulose) (HPC)",96 % of control
CN(C)CN1C(=O)S/C(=C2\C(=O)N(CN(C)C)c3ccccc32)C1=O,T/C,"dose: 30.0 mg/kg/injection, schedule: Q01DX005 (ip), vehicle: Klucel (hydroxypropylcellulose) (HPC)",118 % of control
same,T/C,[7],120 % of control and 121 % of control
same,T/C,[8],113 % of control
same,T/C,[9],120 % of control
"CCC(=O)OC1CC=NN2C(=O)C(NC(=O)c3nc4ccc(OC)cc4cc3O)COC(=O)C(C(C)(C)O)N(C)C(=O)CN(C)C(=O)CNC(=O)C3C(OC(C)=O)CC=NN3C(=O)C(NC(=O)c3nc4ccc(OC)cc4cc3O)COC(=O)C(C(C)(C)O)N(C)C(=O)CN(C)C(=O)CNC(=O)C12 (stereo unspecified) (I: {Quinaldoyl(3-OH,6-OMe)}-S[X12]G[Sar][ξNMeVal(3-OH)] / II: {Quinaldoyl(3-OH,6-OMe)}-S[X8]G[Sar][ξNMeVal(3-OH)]; ester I:1-II:C, I:C-II:1; configuration not given here)",T/C,"dose: 20.0 micrograms/kg/injection, schedule: Q01DX005 (ip), vehicle: DMSO",106 % of control
same,T/C,"dose: 40.0 micrograms/kg/injection, schedule: Q01DX005 (ip), vehicle: DMSO",153 % of control
same,T/C,"dose: 80.0 micrograms/kg/injection, schedule: Q01DX005 (ip), vehicle: DMSO",174 % of control
same,T/C,"dose: 160.0 micrograms/kg/injection, schedule: Q01DX005 (ip), vehicle: DMSO",155 % of control
COc1cccc2c1C(=O)c1c(O)c3c(c(O)c1C2=O)C[C@@](O)(C(C)=O)CC3OC1CC(NC(=O)CCN)C(O)C(C)O1 (stereo partly specified),T/C,[1],97 % of control
same,T/C,[2],100 % of control
same,T/C,[3],103 % of control
same,T/C,"dose: 50.0 mg/kg/injection, schedule: Q04DX003 (ip), vehicle: saline",97 % of control
O=C1OC2(CCCC2)OC(=O)C1=C/C=C/c1ccc([N+](=O)[O-])o1,T/C,"dose: 50.0 mg/kg/injection, schedule: Q04DX003 (ip), vehicle: saline with Tween-80",99 % of control
same,T/C,[4],100 % of control and 114 % of control and 96 % of control
same,T/C,[5],102 % of control and 112 % of control and 96 % of control
same,T/C,[6],103 % of control and 121 % of control and 86 % of control
same,T/C,"dose: 800.0 mg/kg/injection, schedule: Q04DX003 (ip), vehicle: saline with Tween-80",115 % of control
[N-]=[N+]=Nc1ccc(SSCCC(=O)ON2C(=O)CCC2=O)cc1,T/C,[10],118 % of control
same,T/C,[11],116 % of control
CCN(CC)CCCC(C)Nc1cc(/C=C/c2ccc(Cl)cc2)nc2ccc(N(C)C)cc12 (stereo unspecified),T/C,"dose: 7.5 mg/kg/injection, schedule: Q01DX005 (ip), vehicle: saline with Tween-80",100 % of control
same,T/C,"dose: 15.0 mg/kg/injection, schedule: Q01DX005 (ip), vehicle: saline with Tween-80",104 % of control
O=C(Nc1c(Cl)cccc1Cl)OCCOc1ccc(Cl)cc1Cl,T/C,[7],99 % of control
same,T/C,[8],96 % of control
same,T/C,[9],99 % of control
NC(=S)N/N=C/c1nc2ccccc2c(=O)n1-c1ccc(Cl)cc1,T/C,[12],104 % of control
same,T/C,"dose: 200.0 mg/kg/injection, schedule: Q04DX002 (ip), vehicle: saline with Tween-80",95 % of control
same,T/C,"dose: 400.0 mg/kg/injection, schedule: Q04DX002 (ip), vehicle: saline with Tween-80",98 % of control
CCc1ccc(C2(C)C(=O)c3ccccc3C2=O)cc1,T/C,"dose: 100.0 mg/kg/injection, schedule: Q04DX002 (ip), vehicle: saline",101 % of control
same,T/C,"dose: 200.0 mg/kg/injection, schedule: Q04DX002 (ip), vehicle: saline",100 % of control
same,T/C,"dose: 400.0 mg/kg/injection, schedule: Q04DX002 (ip), vehicle: saline",104 % of control
COc1ccc(/C=N/NC(=O)CNC(=O)Nc2n[nH]c(=S)s2)cc1,T/C,[13],100 % of control
same,T/C,[14],104 % of control
same,T/C,[15],100 % of control
CCOC(=O)c1cc(OCC)c(OCC)c(OCC)c1[N+](=O)[O-],T/C,"dose: 50.0 mg/kg/injection, schedule: Q01DX009 (ip), vehicle: saline + Tween-80 + alcohol",98 % of control
same,T/C,"dose: 100.0 mg/kg/injection, schedule: Q01DX009 (ip), vehicle: saline + Tween-80 + alcohol",100 % of control
same,T/C,"dose: 200.0 mg/kg/injection, schedule: Q01DX009 (ip), vehicle: saline + Tween-80 + alcohol",100 % of control
Nc1nc2c(c(=O)[nH]1)NC(CN(C=O)c1ccc(C(=O)NC(CCC(=O)O)C(=O)O)cc1)CC2 (stereo unspecified),T/C,"dose: 50.0 mg/kg/injection, schedule: Q01DX001 (ip), vehicle: saline",99 % of control
same,T/C,"dose: 100.0 mg/kg/injection, schedule: Q01DX001 (ip), vehicle: saline",100 % of control
same,T/C,"dose: 200.0 mg/kg/injection, schedule: Q01DX001 (ip), vehicle: saline",91 % of control
N#Cc1ccccc1NC(=O)Nc1ccc(Cc2ccc(NC(=O)Nc3ccccc3C#N)cc2)cc1,T/C,"dose: 60.0 mg/kg/injection, schedule: Q01DX005 (ip), vehicle: saline with Tween-80",97 % of control
same,T/C,"dose: 120.0 mg/kg/injection, schedule: Q01DX005 (ip), vehicle: saline with Tween-80",97 % of control
same,T/C,"dose: 240.0 mg/kg/injection, schedule: Q01DX005 (ip), vehicle: saline with Tween-80",93 % of control
N#CC(C(=O)C(=O)Nc1cccc(C(F)(F)F)c1)c1c(Cl)cccc1Cl (stereo unspecified),T/C,[10],98 % of control
same,T/C,[11],100 % of control
same,T/C,"dose: 200.0 mg/kg/injection, schedule: Q01DX005 (ip), vehicle: saline with Tween-80",100 % of control
NC(=O)c1c(N)nn2c(-c3ccccc3)cc(-c3ccccc3)cc12,T/C,"dose: 100.0 mg/kg/injection, schedule: Q01DX001 (ip), vehicle: Klucel (hydroxypropylcellulose) (HPC)",86 % of control
same,T/C,"dose: 400.0 mg/kg/injection, schedule: Q01DX001 (ip), vehicle: Klucel (hydroxypropylcellulose) (HPC)",94 % of control
CNC(=O)NCc1cccnc1,T/C,"dose: 60.0 mg/kg/injection, schedule: Q01DX005 (ip), vehicle: saline",107 % of control
same,T/C,"dose: 120.0 mg/kg/injection, schedule: Q01DX005 (ip), vehicle: saline",103 % of control
same,T/C,"dose: 240.0 mg/kg/injection, schedule: Q01DX005 (ip), vehicle: saline",99 % of control
CCN(CC)C(=O)C1CN2CCc3cc(OC)c(OC)cc3C2CC1O (stereo unspecified),T/C,[13],104 % of control and 108 % of control
same,T/C,[14],106 % of control and 109 % of control
same,T/C,[15],123 % of control
O=C1CCCC2=C1c1cc3c(cc1CCN2)OCO3,T/C,"dose: 25.0 mg/kg/injection, schedule: Q04DX002 (ip), vehicle: saline with Tween-80",101 % of control
same,T/C,"dose: 50.0 mg/kg/injection, schedule: Q04DX002 (ip), vehicle: saline with Tween-80",96 % of control
same,T/C,[12],94 % of control and 97 % of control
